# Results published in patent publication US7015242B2, “Methods for treating hyperactive gastrointestinal motility” (Wyeth, priority 2001, dated 2006).
# Tests used:
# [1] = system: isolated carbachol contracted rat bladder strips; test: Relaxation of isolated carbachol contracted rat bladder strips; settings: for effect on retigabine-induced relaxation of bladder strips: M-current blockers added after retigabine
# Description: (§1) Using quantitative rtPCR, the expression of KCNQ1, KCNQ3 and KCNQ5 potassium channels was identified in the rat urinary bladder. […] To further probe M-current activity in the bladder, retigabine (10 μM, M-current agonist) was tested in isolated bladder smooth muscle cells using standard patch-clamp techniques. […] This hyperpolarization was reversed by the addition of linopirdine (50 μM an M-current antagonist) to the tissue bath. […] This relaxation was reversed by the M-current blockers linopirdine and XE-991.
# [2] = system: isolated precontracted guinea pig ileum; test: Isolated precontracted guinea pig ileum preparations in tissue bath
# Description: Following the procedures of the previous example, the effects of retigabine on isolated precontracted guinea pig ileum preparations were studied. Sections of ileum were isolated from male guinea pigs and suspended in a tissue bath. One end of the tissue was anchored to the bottom of the bath, and the other end to a force transducer. Tissues were contracted with either 20 mM KCl or 200 nM carbachol. The KCNQ channel agonist retigabine was added to the tissue baths in increasing concentrations.
# [3] = system: isolated bladder smooth muscle cells; test: Patch-clamp of isolated bladder smooth muscle cells (M-current activity); assay type: cell-based, rat
# Description: as §1
# [4] = biological target: T1, KCNQ2/3 potassium channels (Homo sapiens, UniProt O43525+O43526); settings: oocytes; cited from earlier work
# T1 construct: host or cells: oocytes (heterologous expression, as described in the cited article)
# T1 sequence (O43526 whole entry): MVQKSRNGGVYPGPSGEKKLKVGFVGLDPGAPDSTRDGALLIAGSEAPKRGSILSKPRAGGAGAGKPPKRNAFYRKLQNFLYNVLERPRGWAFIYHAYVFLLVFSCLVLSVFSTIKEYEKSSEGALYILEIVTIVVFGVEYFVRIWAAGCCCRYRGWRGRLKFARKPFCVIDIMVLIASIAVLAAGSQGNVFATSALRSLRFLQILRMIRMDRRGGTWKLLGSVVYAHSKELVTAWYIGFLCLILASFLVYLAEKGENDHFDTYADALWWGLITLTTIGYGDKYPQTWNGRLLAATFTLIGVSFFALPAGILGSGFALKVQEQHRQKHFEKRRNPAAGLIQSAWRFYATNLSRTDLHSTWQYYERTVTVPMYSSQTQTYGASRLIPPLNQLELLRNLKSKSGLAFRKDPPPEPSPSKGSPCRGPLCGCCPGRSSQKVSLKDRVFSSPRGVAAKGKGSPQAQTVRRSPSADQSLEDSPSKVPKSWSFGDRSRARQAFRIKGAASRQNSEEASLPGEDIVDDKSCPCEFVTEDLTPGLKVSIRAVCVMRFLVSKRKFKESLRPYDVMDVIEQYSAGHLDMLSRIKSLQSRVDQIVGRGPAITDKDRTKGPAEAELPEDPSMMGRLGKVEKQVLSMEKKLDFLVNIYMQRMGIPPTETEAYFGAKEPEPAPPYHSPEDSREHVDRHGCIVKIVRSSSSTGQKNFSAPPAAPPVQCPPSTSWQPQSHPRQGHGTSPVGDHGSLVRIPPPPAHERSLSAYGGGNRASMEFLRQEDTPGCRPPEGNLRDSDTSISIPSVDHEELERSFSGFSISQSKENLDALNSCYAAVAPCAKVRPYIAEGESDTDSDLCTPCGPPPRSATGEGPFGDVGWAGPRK
# T1 sequence (O43525 whole entry): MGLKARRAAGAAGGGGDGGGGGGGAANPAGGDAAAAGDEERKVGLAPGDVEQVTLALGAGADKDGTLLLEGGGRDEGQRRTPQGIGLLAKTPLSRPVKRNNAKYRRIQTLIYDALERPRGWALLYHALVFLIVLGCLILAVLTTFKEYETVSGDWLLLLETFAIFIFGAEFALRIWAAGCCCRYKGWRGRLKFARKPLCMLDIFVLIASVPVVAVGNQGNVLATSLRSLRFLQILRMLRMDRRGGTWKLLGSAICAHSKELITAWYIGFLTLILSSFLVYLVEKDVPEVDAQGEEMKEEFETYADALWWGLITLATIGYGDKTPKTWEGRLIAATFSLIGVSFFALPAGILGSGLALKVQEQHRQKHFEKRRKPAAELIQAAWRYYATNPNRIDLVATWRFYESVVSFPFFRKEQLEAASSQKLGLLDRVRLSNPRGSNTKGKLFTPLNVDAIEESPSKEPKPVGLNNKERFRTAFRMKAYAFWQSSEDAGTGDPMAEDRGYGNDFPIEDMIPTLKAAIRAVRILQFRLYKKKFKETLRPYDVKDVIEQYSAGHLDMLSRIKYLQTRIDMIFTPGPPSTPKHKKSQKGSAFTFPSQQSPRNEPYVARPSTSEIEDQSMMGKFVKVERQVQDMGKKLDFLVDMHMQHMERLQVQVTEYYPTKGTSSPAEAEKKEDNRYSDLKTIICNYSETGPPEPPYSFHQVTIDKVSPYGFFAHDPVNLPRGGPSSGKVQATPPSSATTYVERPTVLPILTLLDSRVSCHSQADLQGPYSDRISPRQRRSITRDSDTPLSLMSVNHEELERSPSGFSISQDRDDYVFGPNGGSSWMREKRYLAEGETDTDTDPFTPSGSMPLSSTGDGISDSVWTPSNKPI
SMILES,effect on retigabine-induced relaxation of bladder strips [1],effect on responses to retigabine in ileum ([2]; both KCl and carbachol contracted tissues),effect on retigabine-induced hyperpolarization ([3]; linopirdine 50 μM added to the tissue bath),channel deactivation [4],rate of channel activation [4],voltage dependence of channel activation [4],"IC50 ([1]; Rattus norvegicus, read-out: IC50 of relaxation of carbachol contracted bladder strips) [µM]","inhibition of contraction of ileum ([2]; tissues contracted with 20 mM KCl or 200 nM carbachol, increasing concentrations)","membrane hyperpolarization ([3]; retigabine 10 μM, n=5) [mV]","outward current insensitive to iberiotoxin ([3]; retigabine 10 μM, standard patch-clamp)"
O=C1c2ccccc2C(Cc2ccncc2)(Cc2ccncc2)c2ccccc21 [XE-991],reversed,antagonized,,,,,,,,
O=C1N(c2ccccc2)c2ccccc2C1(Cc1ccncc1)Cc1ccncc1 [linopirdine],reversed,,reversed,,,,,,,
"CCOC(=O)Nc1ccc(NCc2ccc(F)cc2)cc1N [retigabine, N-[2-amino-4-(4-fluorobenzylamino)-phenyl]carbamic acid ethyl ester]",,,,slows channel deactivation,increases the rate of channel activation,shifts the voltage dependence of channel activation to more hyperpolarized membrane potentials,3.5 ± 0.9,concentration-dependent inhibition of contraction,17.8±3.0,significantly increased
